Results reported in EP0171942A1, “Antitumor composition” (Takeda Chemical Industries, Ltd., priority 1984, dated 1986).

Tests used:
[1] = system: Lewis lung carcinoma; assay: Antitumor effect test using Lewis lung carcinoma (subcutaneous tumor fragment implant, tumor weight on day 10); type: in vivo, mouse; conditions: oral, once daily for 7 days
Experimental: The antitumor composition according to the invention was tested for antitumor effect using Lewis lung carcinoma. Thus, each female Fl mouse [C57BL/6 x DBA/2] weighing 18 ± 1 .g was implanted with a tumor fragment about 2 mm^3 in volume subcutaneously into the axillary site using a trocar. Starting from 24 hours after tumor implantation, the above- mentioned compound 4 and uracil were orally administered combinedly in the proportion given below in Table 1 once daily for 7 days, and the antitumor effect was compared with that attained when each of them was administered singly. The sample agent was suspended in a 0.5% solution of gum arabic in physiological saline just before daily administration such that the dose amounted to 0.2 ml/20 g body weight. Ten days after tumor implantation, the tumor was excised and weighed, and the average tumor weight ratio (T/C %) between the dosed group (T, group of 5 animals) and the control group (C, group of 10 animals) was calculated. The daily dose was expressed in terms of number of moles per kilogram of body weight (mM/kg).

[2] = system: colon carcinoma 26; assay: Antitumor effect test using colon carcinoma 26 (subcutaneous tumor fragment implant, tumor weight on day 10); type: in vivo, mouse; conditions: oral, once a day for 7 days
Experimental: The antitumor composition according to the invention was further tested for antitumor effect using colon carcinoma 26. Thus, each female F1 mouse [BALB/c x DBA/2] weighing 21 ± 1 g was subcutaneously implanted with a tumor fragment (about 2 mm3) into the axillary site using a trocar. Starting from 24 hours after tumor implantation, the above- mentioned compound 4 and uracil were orally administered combinedly on the proportion given below in Table 2 once a day for 7 days, and the antitumor effect was compared with that attained by single administration of either of them. The test agent was suspended in a 0.5% solution of gum arabic in physiological saline daily just before administration such that the dose amounted to 0.2 ml/20 g body weight. Ten days after tumor implantation, the tumor was excised and weighed, and the average tumor weight ratio (T/C %) between the dosed group (T, group of 5 animals) and the control group (C, group of 20 animals) was calculated. The daily dose was expressed in terms of number of moles per kilogram of body weight (mM/kg).

[3] = compound 4 0.1 mM/kg alone, tumor excised 10 days after implantation
[4] = compound 4 0.2 mM/kg alone, day 10
[5] = compound 4 0.4 mM/kg alone, day 10
[6] = compound 4 0.8 mM/kg alone, day 10

## CC(C)COC(=O)C1(F)C(=O)NC(=O)NC1O/N=C/c1ccco1 (centres unmarked) [compound 4, Isobutyl 5-fluoro-4-[(E)-furfurylideneaminooxy]-2,6-dioxohexahydropyrimidine-5-carboxylate]
[1]; [3]
  T/C: 54%
  Tumor weight: 138 mg
[1]; [4]
  T/C: 42%
  Tumor weight: 107 mg
[1]; [5]
  T/C: 31%
  Tumor weight: 80 mg
[1]; [6]
  T/C: 19%
  Tumor weight: 49 mg
[2]; [3]
  T/C: 96%
  Tumor weight: 190 mg
[2]; [4]
  T/C: 29%
  Tumor weight: 57 mg
[2]; [5]
  T/C: 1%
  Tumor weight: 2 mg
[2]; [6]
  T/C: 0%
  Tumor weight: 0 mg

## O=c1cc[nH]c(=O)[nH]1 [uracil]
[1]; uracil 0.4 mM/kg alone, day 10
  T/C: 125%
  Tumor weight: 319 mg
[1]; uracil 0.8 mM/kg alone, day 10
  T/C: 224%
  Tumor weight: 572 mg
[1]; uracil 1.6 mM/kg alone, day 10
  T/C: 197%
  Tumor weight: 502 mg
[1]; uracil 3.2 mM/kg alone, day 10
  T/C: 169%
  Tumor weight: 432 mg
[2]; uracil 0.4 mM/kg alone, day 10
  T/C: 113%
  Tumor weight: 223 mg
[2]; uracil 0.8 mM/kg alone, day 10
  T/C: 87%
  Tumor weight: 173 mg
[2]; uracil 1.6 mM/kg alone, day 10
  T/C: 86%
  Tumor weight: 170 mg
[2]; uracil 3.2 mM/kg alone, day 10
  T/C: 98%
  Tumor weight: 194 mg
